Marks after values point to notes of the source that are not given here. Blank lines part the entries; values can stand above or below the compound they belong to.
How the values were obtained:
MCF-7 = assay: In vitro antiproliferative assay (MTT), MCF-7; assay type: cell-based; details: Homo sapiens, MCF7, 72 h
Protocol: (§1) The cell proliferation assay was determined by the MTT (3-[4,5-dimethyl-2-thiazolyl]-2,5-diphenyl-2H-tetrazolium bromide) method. Briefly, cells were passaged the day before dosing into a 96-well plate, allowed to grow for 12 h, and then treated with different concentrations of compound for 72 h. A 0.5% MTT solution was added to each well. After incubation for another 4 h, formazan formed from MTT was extracted by adding 200 μL of DMSO. Absorbance was then determined using a microplate reader at 570 nm.

HDAC8 = molecular target: T1, HDAC8 (Homo sapiens, UniProt Q9BY41); assay: In vitro HDAC inhibition fluorescent assay, HDAC8; assay type: biochemical; details: Boc-Lys(trifluoroacetyl)-AMC substrate
T1 sequence (Q9BY41 1-377): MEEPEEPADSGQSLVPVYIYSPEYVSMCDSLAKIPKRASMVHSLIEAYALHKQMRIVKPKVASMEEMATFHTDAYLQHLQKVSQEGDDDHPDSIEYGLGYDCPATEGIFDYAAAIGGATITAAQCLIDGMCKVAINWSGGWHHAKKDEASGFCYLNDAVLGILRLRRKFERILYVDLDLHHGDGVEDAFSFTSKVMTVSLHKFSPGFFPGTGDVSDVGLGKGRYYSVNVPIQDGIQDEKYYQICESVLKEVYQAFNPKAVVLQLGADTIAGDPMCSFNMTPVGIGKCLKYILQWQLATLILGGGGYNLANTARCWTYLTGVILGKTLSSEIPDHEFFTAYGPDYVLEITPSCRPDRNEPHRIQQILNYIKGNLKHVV
Protocol: (§2) An aliquot of 10 μL of enzyme solution (HeLa cell nuclear extract, HDAC2, HDAC6, or HDAC8) was mixed with different concentrations of test compound (50 μL). The mixture was incubated at 37°C for 5 min, followed by the addition of 40 μL of fluorogenic substrate tert-butyl (S)-(6-acetamido- 1-((4-methyl-2-oxo-2H-chromen-7-yl)amino)-1-oxohexan-2-yl) carbamate (Boc-Lys(acetyl)-AMC) for HeLa cell nuclear extracts, HDAC2, and HDAC6; tert-butyl (S)-(1-((4-methyl- 2-oxo-2H-chromen-7-yl)amino)-1-oxo-6-(2,2,2-trifluoroacetam ido)hexan-2-yl)carbamate (Boc-Lys(trifluoroacetyl)-AMC) for HDAC8). After incubation at 37°C for 30 min, the mixture was quenched by the addition of 100 μL of developer containing trypsin and trichostatin A. Following incubation at 37°C for 20 min, the fluorescence intensity was measured using a microplate reader at excitation and emission wavelengths of 390 and 460 nm, respectively. The inhibition ratios were calculated from the fluorescence intensity readout of tested wells relative to those of control wells, and the half maximal inhibitory concentration (IC50) values were calculated using the prism non-linear curve-fitting method.

MOLT-4 = assay: In vitro antiproliferative assay (MTT), MOLT-4; assay type: cell-based; details: Homo sapiens, 72 h
Protocol: as §1

[1] = In vitro metabolic stability assay in human plasma; assay type: in vitro ADME; details: 37°C, LC-MS/MS, read-out: t1/2 Human plasma
Protocol: (§3) Human plasma samples containing compound 1 were incubated at 37°C. At the specific time points, samples were added to acetonitrile to terminate the reaction, then subjected to vortex mixing for 5 min and stored in a freezer at –80°C. Before analysis, the samples were centrifuged. The remainder of 1 in the supernatants was analyzed by liquid chromatography with tandem mass spectrometry (LC-MS/MS). The t1/2(half–time) values were calculated using the equation t1/2(half–time) = −0.693/k, where k is the slope found in the linear fit of the natural logarithm of the fraction remaining of compound 1 versus incubation time.

PC-3 = assay: In vitro antiproliferative assay (MTT), PC-3; assay type: cell-based; details: Homo sapiens, 72 h
Protocol: as §1

SK-N-BE(2) = assay: In vitro antiproliferative assay (MTT), SK-N-BE(2); assay type: cell-based; details: Homo sapiens, SKNBE2, 72 h
Protocol: as §1

MDA-MB-231 xenograft = assay type: in vivo; details: oral 30 mg/kg/day
Protocol: Ten days after injection, tumors were palpable and mice were randomized into treatment and control groups (six mice per group). […] Subcutaneous tumors were measured with a vernier caliper every 3 days. Tumor volumes (V) were estimated using the equation (V = ab^2/2, where a and b are the longest and shortest diameter, respectively). The body weight of the mice was also monitored regularly. At the end of the experimental period, mice were sacrificed and the tumor tissues were dissected and weighed. Tumor growth inhibition (TGI) and the relative increment ratio (T/C) were calculated at the end of treatment to reveal the antitumor effects in tumor weight and tumor volume, respectively.
• TGI = (the mean tumor weight of control group – the mean tumor weight of treated group)/the mean tumor weight of control group. • T/C = the mean RTV of treated group (T)/the mean RTV of blank control group (C).
where the relative tumor volume (RTV) is Vt/V0 (Vt is the tumor volume measured at the end of treatment; V0 is the tumor volume measured at the beginning of the treatment).
All the obtained data were used to evaluate the antitumor potency and toxicity of compounds. Data were analyzed by Student’s one-tailed t-test.

KG-1 = assay: In vitro antiproliferative assay (MTT), KG-1; assay type: cell-based; details: Homo sapiens, 72 h
Protocol: as §1

[2] = In vitro metabolic stability assay in human liver microsomes; assay type: in vitro ADME; details: with NADPH, 37°C, LC-MS/MS, read-out: t1/2 Human liver microsomes
Protocol: as §3, with “Human liver microsomes” for “Human plasma samples”, “incubated with NADPH” for “incubated”, “by LC-MS/MS.” for “by liquid chromatography with tandem mass spectrometry (LC-MS/MS).”, “equation t1/2” for “equation t1/2(half–time)”

[3] = test system: HeLa cell nuclear extract; assay: In vitro HDAC inhibition fluorescent assay, total HDAC; assay type: biochemical; details: Boc-Lys(acetyl)-AMC substrate
Protocol: as §2

[4] = test system: tested human cancer cell lines; assay: In vitro antiproliferative assay (MTT), all tested tumor cell lines; assay type: cell-based
Protocol: as §1, with “All cell lines were maintained in Roswell Park Memorial Institute (RPMI) 1640 medium containing 10% fetal bovine serum at 37°C in a 5% CO2 humidified incubator. The” for “The”

MDA-MB-231 = assay: In vitro antiproliferative assay (MTT), MDA-MB-231; assay type: cell-based; details: Homo sapiens, 72 h
Protocol: as §1

[5] = test system: acetyl-histone H4 and acetyl-α-tubulin in MDA-MB-231 cells; assay: Western blot analysis of intracellular HDAC inhibition; assay type: cell-based, human; details: for level of acetyl-histone H4 / level of acetyl-α-tubulin: 3 h, immunoblot
Protocol: The MDA-MB-231 cells were treated with compounds or DMSO for a specified period of time. Then the cells were washed twice with cold phosphate-buffered saline (PBS) and lysed in ice-cold radioimmunoprecipitation assay (RIPA) buffer. Lysates were cleared by centrifugation. Protein concentrations were determined using the bicinchoninic acid assay. Equal amounts of cell extracts were then resolved by sodium dodecyl sulfate–polyacrylamide gel electrophoresis, transferred to nitrocellulose membranes, and probed with acetyl-histone H4 antibody (intracellular substrate of HDAC1 and HDAC2), acetyl-α-tubulin antibody (intracellular substrate of HDAC6), and β-actin antibody (used as a loading control), respectively. Blots were detected using an enhanced chemiluminescence system.

HDAC6 = molecular target: T2, HDAC6 (Homo sapiens, UniProt Q9UBN7); assay: In vitro HDAC inhibition fluorescent assay, HDAC6; assay type: biochemical; details: Boc-Lys(acetyl)-AMC substrate
T2 sequence (Q9UBN7 1-1215): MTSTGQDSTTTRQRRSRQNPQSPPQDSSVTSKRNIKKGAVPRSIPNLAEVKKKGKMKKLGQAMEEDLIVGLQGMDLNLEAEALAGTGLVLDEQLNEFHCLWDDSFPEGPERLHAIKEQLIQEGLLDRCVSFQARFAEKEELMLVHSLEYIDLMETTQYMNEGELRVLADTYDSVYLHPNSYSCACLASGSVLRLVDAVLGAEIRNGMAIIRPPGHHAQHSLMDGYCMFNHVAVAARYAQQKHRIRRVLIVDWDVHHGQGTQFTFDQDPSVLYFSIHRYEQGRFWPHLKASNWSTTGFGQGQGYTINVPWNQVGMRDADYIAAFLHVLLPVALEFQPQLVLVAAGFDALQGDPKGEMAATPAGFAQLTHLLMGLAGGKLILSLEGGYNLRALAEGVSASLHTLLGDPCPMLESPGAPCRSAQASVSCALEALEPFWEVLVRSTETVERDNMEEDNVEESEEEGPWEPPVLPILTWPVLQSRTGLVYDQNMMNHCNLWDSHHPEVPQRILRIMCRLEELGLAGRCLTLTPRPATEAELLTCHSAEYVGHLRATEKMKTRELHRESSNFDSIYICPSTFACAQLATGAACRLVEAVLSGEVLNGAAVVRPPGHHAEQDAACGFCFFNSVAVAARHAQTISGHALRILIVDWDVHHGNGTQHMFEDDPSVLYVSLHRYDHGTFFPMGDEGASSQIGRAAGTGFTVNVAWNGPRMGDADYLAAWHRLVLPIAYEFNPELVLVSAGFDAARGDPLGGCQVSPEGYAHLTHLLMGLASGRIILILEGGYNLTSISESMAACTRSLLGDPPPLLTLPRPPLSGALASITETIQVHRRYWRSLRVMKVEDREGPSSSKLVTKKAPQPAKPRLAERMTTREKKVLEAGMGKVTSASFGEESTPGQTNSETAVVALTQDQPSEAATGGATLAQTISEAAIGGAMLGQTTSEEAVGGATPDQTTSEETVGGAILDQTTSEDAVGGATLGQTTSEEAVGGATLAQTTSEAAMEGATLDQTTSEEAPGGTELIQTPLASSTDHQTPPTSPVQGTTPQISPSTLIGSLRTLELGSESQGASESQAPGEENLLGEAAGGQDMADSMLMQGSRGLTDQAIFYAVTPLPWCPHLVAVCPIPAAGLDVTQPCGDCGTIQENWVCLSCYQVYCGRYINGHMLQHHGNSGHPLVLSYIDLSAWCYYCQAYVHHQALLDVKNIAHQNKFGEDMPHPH
Protocol: as §2

HEL = assay: In vitro antiproliferative assay (MTT), HEL; assay type: cell-based; details: Homo sapiens, 72 h
Protocol: as §1

HDAC2 = HDAC2 (Homo sapiens, UniProt Q92769); assay: In vitro HDAC inhibition fluorescent assay, HDAC2; assay type: biochemical; details: Boc-Lys(acetyl)-AMC substrate
Sequence of HDAC2 (Q92769 whole entry, species assumed): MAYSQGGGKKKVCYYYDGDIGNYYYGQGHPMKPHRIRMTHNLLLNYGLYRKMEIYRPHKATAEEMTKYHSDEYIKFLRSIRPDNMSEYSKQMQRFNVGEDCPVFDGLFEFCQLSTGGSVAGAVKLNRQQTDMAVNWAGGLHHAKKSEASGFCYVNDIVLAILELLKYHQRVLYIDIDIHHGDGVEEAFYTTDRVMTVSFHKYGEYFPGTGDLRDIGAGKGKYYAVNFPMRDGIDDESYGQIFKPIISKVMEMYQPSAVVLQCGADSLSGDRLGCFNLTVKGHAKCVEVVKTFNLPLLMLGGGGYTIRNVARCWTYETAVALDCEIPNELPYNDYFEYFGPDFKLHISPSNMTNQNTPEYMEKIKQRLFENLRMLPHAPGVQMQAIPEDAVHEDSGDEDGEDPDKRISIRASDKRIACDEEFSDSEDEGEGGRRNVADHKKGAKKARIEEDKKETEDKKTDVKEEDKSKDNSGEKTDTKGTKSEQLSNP
Protocol: as §2

[6] = design: method as in Konsoula and Jung, 2008; details: reported data of vorinostat; ref Konsoula and Jung, 2008; cited from earlier work

SMILES: O=C(CCCCCCC(=O)Nc1nc2ccc(OC(F)(F)F)cc2s1)NO [Compound 1, N1-Hydroxy-N8-(6-(Trifluoromethoxy)benzo[d]thiazol-2-yl) Octanediamide]
- IC50 (MCF-7): 2740 ± 60 nM
- IC50 (HDAC8): 3300 ± 200 nM
- IC50 (MOLT-4): 170 ± 7 nM
- half-life [1]: > 120 min
- IC50 (PC-3): 2520 ± 330 nM
- IC50 (SK-N-BE(2)): 290 ± 7 nM
- T/C (relative increment ratio, tumor volume) (MDA-MB-231 xenograft; 21 consecutive days, nude mice): 55%
- TGI (tumor growth inhibition, tumor weight) (MDA-MB-231 xenograft; 21 consecutive days, nude mice): 59%
- mouse body weights (tolerability) (MDA-MB-231 xenograft; 21 days, Figure 6): high tolerability and low toxicity
- IC50 (KG-1): 650 ± 20 nM
- half-life [2]: 56 min
- IC50 [3]: 120 ± 10 nM
- IC50 ([4]; range over MDA-MB-231, MCF-7, PC-3, SK-N-BE(2), KG-1, MOLT-4, HEL, read-out: IC50 values across all tested human cancer cell lines): 140 to 2740 nM
- IC50 (MDA-MB-231): 770 ± 20 nM
- level of acetyl-histone H4 [5]: dramatically increase
- level of acetyl-α-tubulin [5]: dramatically increase
- effect on acetyl-α-tubulin compared with vorinostat ([5]; same concentration of 0.5 μM): superior to that of vorinostat
- IC50 (HDAC6): 12 ± 2 nM
- IC50 (HEL): 140 ± 7 nM
- IC50 (HDAC2): 330 ± 40 nM

- IC50 (PC-3): > 10000 nM
- IC50 (MDA-MB-231): > 10000 nM
SMILES: Nc1nc2ccc(OC(F)(F)F)cc2s1 [Riluzole, reference compound]
- IC50 (KG-1): > 10000 nM
- inhibition at 10 µM ([4]; at 10 μM, tested tumor cell lines, read-out: growth inhibition): < 50%
- IC50 (HEL): > 10000 nM

SMILES: O=C(CCCCCCC(=O)Nc1ccccc1)NO [Vorinostat, suberoylanilide hydroxamic acid, reference compound]
- t1/2 Human plasma [6]: 75^b min
- level of acetyl-histone H4 [5]: dramatically increase
- level of acetyl-α-tubulin [5]: dramatically increase

— article PMC7375020 (Frontiers in Cell and Developmental Biology, 2020)
